Each structure is given as a SMILES string.

T1 sequence (Q92633 whole entry): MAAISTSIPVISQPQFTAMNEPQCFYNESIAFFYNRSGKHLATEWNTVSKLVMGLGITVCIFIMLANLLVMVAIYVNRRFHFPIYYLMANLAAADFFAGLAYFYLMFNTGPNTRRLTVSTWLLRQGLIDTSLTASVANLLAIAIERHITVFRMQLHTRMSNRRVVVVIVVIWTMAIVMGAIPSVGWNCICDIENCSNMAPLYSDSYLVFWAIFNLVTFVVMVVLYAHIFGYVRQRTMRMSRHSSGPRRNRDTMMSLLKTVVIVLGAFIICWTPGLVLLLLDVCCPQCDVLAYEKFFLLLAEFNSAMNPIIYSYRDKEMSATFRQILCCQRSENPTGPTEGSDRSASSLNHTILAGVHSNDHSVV

The assay addresses T1, human LPA1 (Homo sapiens, UniProt Q92633).
T1 construct: expressed in transfected cells; host or cells: Chinese hamster ovary (CHO) cells
The experiment in a line: LPA1 functional antagonist assay (calcium flux). The class given is cell-based. Particulars: CHO cells overexpressing human LPA1; inhibition of calcium flux induced by 10 nM LPA; read-out: hLPA1 IC50. How it is done: The effectiveness of compounds of the present invention as LPA1 inhibitors can be determined in an LPA1 functional antagonist assay as follows:
Chinese hamster ovary cells overexpressing human LPA1 were plated overnight (15,000 cells/well) in poly-D-lysine coated 384-well microplates (Greiner bio-one, Cat #781946) in DMEM/F12 medium (Gibco, Cat #11039). Following overnight culture, cells were loaded with calcium indicator dye (AAT Bioquest Inc, Cat #34601) for 30 minutes at 37° C. The cells were then equilibrated to room temperature for 30 minutes before the assay. Test compounds solubilized in DMSO were transferred to 384 well non-binding surface plates (Corning, Cat #3575) using the Labcyte Echo acoustic dispense and diluted with assay buffer [1×HBSS with calcium/magnesium (Gibco Cat #14025-092), 20 mM HEPES (Gibco Cat #15630-080) and 0.1% fatty acid free BSA (Sigma Cat #A9205)] to a final concentration of 0.5% DMSO. Diluted compounds were added to the cells by FDSS6000 (Hamamatsu) at final concentrations ranging from 0.08 nM to 5 μM. and were then incubated for 20 min at room temperature at which time LPA (Avanti Polar Lipids Cat #857130C) was added at final concentrations of 10 nM to stimulate the cells. The compound IC50 value was defined as the concentration of test compound which inhibited 50% of the calcium flux induced by LPA alone. IC50 values were determined by fitting data to a 4-parameter logistic equation (GraphPad Prism, San Diego Calif.).
In the case of `COCc1ccnc(OCc2c(-c3ccc(O[C@H]4CCC[C@H](C(=O)O)C4)c(C)n3)nnn2C)c1` [Example 325], the IC50 was found to be 25 nM. Consider `Cc1nc(-c2nnn(C)c2CNc2ncc(C#N)c(C(C)(C)C)n2)ccc1O[C@H]1CCC[C@H](C(=O)O)C1` [Example 171], for which the IC50 came out at 177 nM. With `Cc1nc(-c2nnn(C)c2CNc2ncc3c(n2)-c2ccccc2OC3)ccc1O[C@H]1CCC[C@H](C(=O)O)C1` [Example 147], the IC50 turned out to be 278 nM. Under `CCOc1ccnc(NCc2c(-c3nc(C)c(O[C@H]4CCC[C@H](C(=O)O)C4)cc3F)nnn2C)n1` [Example 384] stands 48 nM. In the case of `Cc1nc(-c2nnn(C)c2CNc2ncc(F)c(NCCC(C)C)n2)ccc1O[C@H]1CCC[C@H](C(=O)O)C1` [Example 52], the IC50 amounted to 63 nM. As to `Cc1nc(-c2nnn(C)c2Nc2ccnc(OC3CC3)n2)ccc1O[C@H]1CCC[C@H](C(=O)O)C1` [Example 228, (1S,3S)-3-((6-(5-((2-cyclopropoxypyrimidin-4-yl)amino)-1-methyl-1H-1,2,3-triazol-4-yl)-2-methylpyridin-3-yl)oxy)cyclohexane-1-carboxylic acid], the half-inhibitory concentration (IC50) is 215 nM.

In the case of `Cc1nc(-c2nnn(C)c2CNc2cc(C3CC3)ccn2)ccc1O[C@H]1CCC[C@H](C(=O)O)C1` [Example 371, (1S,3S)-3-((6-(5-(((4-cyclopropylpyridin-2-yl)amino)methyl)-1-methyl-1H-1,2,3-triazol-4-yl)-2-methylpyridin-3-yl)oxy)cyclohexane-1-carboxylic acid], the IC50 is 16 nM. With `Cc1nc(-c2nnn(C)c2CNc2nc(-c3cccs3)nc(-c3cccs3)n2)ccc1O[C@H]1CCC[C@H](C(=O)O)C1` [Example 95], the IC50 came to 1280 nM. Under `Cc1nc(-c2nnn(C)c2CNc2ncnc(CCC(C)C)n2)ccc1O[C@H]1CCC[C@H](C(=O)O)C1` [Example 205, (1S,3S)-3-((6-(5-(((4-Isopentyl-1,3,5-triazin-2-yl)amino)methyl)-1-methyl-1H-1,2,3-triazol-4-yl)-2-methyl-pyridin-3-yl)oxy)cyclohexane-1-carboxylic acid] stands 40 nM; under `CCc1nc(-c2nnn(C)c2CNc2nccc(C3CC3)n2)ccc1O[C@H]1CCC[C@H](C(=O)O)C1` [Example 388], 45 nM. For `Cc1nc(-c2nnn(C)c2CNc2nc(OC(C)C)cc(OC(C)C)n2)ccc1O[C@H]1CCC[C@H](C(=O)O)C1` [Example 175] the value was 384 nM; for `Cc1nc(-c2nnn(C)c2CNc2ncnc(C3(C)CC3)n2)ccc1O[C@H]1CCC[C@H](C(=O)O)C1` [Example 207, (1S,3S)-3-((2-Methyl-6-(1-methyl-5-(((4-(1-methylcyclopropyl)-1,3,5-triazin-2-yl)amino)methyl)-1H-1,2,3-triazol-4-yl)pyridin-3-yl)oxy) cyclohexane-1-carboxylic acid], 53 nM. Under `Cc1nc(-c2nnn(C)c2COc2cc(C(C)(C)C)ncn2)ccc1O[C@H]1CCC[C@H](C(=O)O)C1` [Example 286] stands 135 nM. Take `CCCc1ncnc(NCc2c(-c3ccc(O[C@H]4CCC[C@H](C(=O)O)C4)cn3)nnn2C)n1` [Example 221, (1S,3S)-3-((6-(1-methyl-5-(((4-propyl-1,3,5-triazin-2-yl)amino)methyl)-1H-1,2,3-triazol-4-yl)pyridin-3-yl)oxy) cyclohexane-1-carboxylic acid]: the IC50 was 63 nM. `Cc1ncnc(NCc2c(-c3ccc(O[C@H]4CCC[C@H](C(=O)O)C4)c(C)n3)nnn2C)n1` [Example 196, (1S,3S)-3-((2-Methyl-6-(1-methyl-5-(((4-methyl-1,3,5-triazin-2-yl)amino)methyl)-1H-1,2,3-triazol-4-yl)pyridin-3-yl)oxy)cyclohexane-1-carboxylic acid]: the IC50 turned out to be 2190 nM. Under `Cc1nc(-c2nnn(C)c2COc2cc(C(F)(F)F)ncn2)ccc1O[C@H]1CCC[C@H](C(=O)O)C1` [Example 295] stands 21 nM; under `CCc1ccnc(OCc2c(-c3ccc(O[C@H]4CCC[C@H](C(=O)O)C4)c(C)n3)nnn2C)n1` [Example 301], 7.9 nM; under `CCOc1cc(OCC)nc(NCc2c(-c3ccc(O[C@H]4CCC[C@H](C(=O)O)C4)c(C)n3)nnn2C)n1` [Example 173], 127 nM. For `Cn1nnc(-c2ccc(O[C@H]3CCC[C@H](C(=O)O)C3)cn2)c1CNc1nccc(-c2ccccc2F)n1` [Example 28], the half-maximal inhibitory concentration (IC50) stood at 19 nM. With `Cc1nc(-c2nnn(C)c2CNc2nccc(OC3CCCC3)n2)ccc1O[C@H]1CCC[C@H](C(=O)O)C1` [Example 85], the IC50 is 109 nM.

Regarding `COc1cnc(NCc2c(-c3ccc(O[C@H]4CCC[C@H](C(=O)O)C4)c(C)n3)nnn2C)nc1C1CCC1` [Example 121], the IC50 was 106 nM. For `Cc1nc(-c2nnn(C)c2CNc2nccc(OC3CC(F)(F)C3)n2)ccc1O[C@H]1CCC[C@H](C(=O)O)C1` [Example 262] the value was 50 nM; for `Cc1nc(-c2nnn(C)c2CNc2ncc(F)c(NCCC3CC3)n2)ccc1O[C@H]1CCC[C@H](C(=O)O)C1` [Example 57], 21 nM. Turning to `Cc1nc(-c2nnn(C)c2COc2cc(C(F)(F)F)cc(C#N)n2)ccc1O[C@H]1CCC[C@H](C(=O)O)C1` [Example 288], the IC50 was 308 nM. Turning to `COc1ccccc1-c1ccnc(NCc2c(-c3ccc(O[C@H]4CCC[C@H](C(=O)O)C4)cn3)nnn2C)n1` [Example 36], the 50% inhibitory concentration (IC50) was 59 nM. For `Cc1nc(-c2nnn(C)c2COc2nccc(C3CC3)n2)ccc1O[C@H]1CCC[C@H](C(=O)O)C1` [Example 302] the value was 7.5 nM. For `COc1ccc(Oc2ccnc(NCc3c(-c4ccc(O[C@H]5CCC[C@H](C(=O)O)C5)c(C)n4)nnn3C)n2)cc1` [Example 107] the value was 54 nM. Take `Cc1nc(-c2nnn(C)c2CNc2nccc(Cc3ccccc3)n2)ccc1O[C@H]1CCC[C@H](C(=O)O)C1` [Example 11]: the IC50 was 103 nM. Regarding `Cn1nnc(-c2ccc(O[C@H]3CCC[C@H](C(=O)O)C3)cn2)c1CNc1nccc(-n2cccn2)n1` [Example 34], the IC50 amounted to 1130 nM. For `Cc1nc(-c2nnn(C)c2CNc2cc(-c3ccccc3)c(Cl)nn2)ccc1O[C@H]1CCC[C@H](C(=O)O)C1` [Example 372, (1S,3S)-3-((6-(5-(((6-chloro-5-phenylpyridazin-3-yl)amino)methyl)-1-methyl-1H-1,2,3-triazol-4-yl)-2-methylpyridin-3-yl)oxy)cyclohexane-1-carboxylic acid], the IC50 was 199 nM. With `Cc1nc(-c2nnn(C)c2CNc2ncnc(CCC(C)(C)C)n2)ccc1O[C@H]1CCC[C@H](C(=O)O)C1` [Example 206, (1S,3S)-3-((6-(5-(((4-(3,3-Dimethylbutyl)-1,3,5-triazin-2-yl)amino)methyl)-1-methyl-1H-1,2,3-triazol-4-yl)-2-methylpyridin-3-yl)oxy)cyclohexane-1-carboxylic acid], the IC50 was found to be 120 nM. For `Cc1nc(-c2nnn(C)c2COc2ncc(F)c(NC(C)C)n2)ccc1O[C@H]1CCC[C@H](C(=O)O)C1` [Example 252, (1S,3S)-3-((6-(5-(((5-fluoro-4-(isopropylamino)pyrimidin-2-yl)oxy)methyl)-1-methyl-1H-1,2,3-triazol-4-yl)-2-methylpyridin-3-yl)oxy)cyclohexane-1-carboxylic acid], the concentration for half-maximal inhibition (IC50) came to 65 nM. Consider `Cc1nc(-c2nnn(C)c2CNc2ncnc(C(C)C)n2)ccc1O[C@H]1CCC[C@H](C(=O)O)C1` [Example 333], for which the IC50 was 43 nM. On to `Cn1nnc(-c2ccc(O[C@H]3CCC[C@H](C(=O)O)C3)c(C#N)n2)c1CNc1nccc(C(C)(C)C)n1` [Example 407], for which the IC50 came out at 104 nM. `Cc1cc(-c2ccccn2)nc(NCc2c(-c3ccc(O[C@H]4CCC[C@H](C(=O)O)C4)cn3)nnn2C)n1` [Example 37]: the IC50 came out at 166 nM. Consider `CCOc1ccnc(NCc2c(-c3ccc(O[C@H]4CCC[C@H](C(=O)O)C4)c(C)n3)nnn2C)c1` [Example 68], for which the half-inhibitory concentration (IC50) turned out to be 132 nM. In the case of `Cc1nc(-c2nnn(C)c2CN(C)c2nccc(OCC(C)F)n2)ccc1O[C@H]1CCC[C@H](C(=O)O)C1` (some centres unmarked) [Example 269], the IC50 was determined as 45 nM. For `CCc1ccnc(NCc2c(-c3ccc(O[C@H]4CCC[C@H](C(=O)O)C4)c(C)n3)nnn2C)n1` [Example 40], the half-maximal inhibitory concentration (IC50) turned out to be 46 nM. `Cn1nnc(-c2cnc(O[C@H]3CCC[C@H](C(=O)O)C3)cn2)c1CNc1nccc(-c2ccccc2)n1` [Example 27]: the IC50 was 26 nM.

For `Cc1nc(-c2nnn(C)c2CNc2cc(OC3CCC3)ccn2)ccc1O[C@H]1CCC[C@H](C(=O)O)C1` [Example 180], the half-maximal inhibitory concentration (IC50) is 246 nM. Take `Cc1nc(-c2nnn(C)c2CNc2nccc(OCC3CC3)n2)ccc1O[C@H]1CCC[C@H](C(=O)O)C1` [Example 334]: the concentration for half-maximal inhibition (IC50) amounted to 19 nM. On to `Cc1nc(-c2nnn(C)c2CNc2ncc(F)c(-c3ccccc3F)n2)ccc1O[C@H]1CCC[C@H](C(=O)O)C1` [Example 123], for which the half-inhibitory concentration (IC50) came to 79 nM. In the case of `Cc1nc(-c2nnn(C)c2CNc2nccc(OCC(C)(C)F)n2)ccc1O[C@H]1CCC[C@H](C(=O)O)C1` [Example 56], the IC50 stood at 52 nM. With `Cc1nc(-c2nnn(C)c2COc2cc(-c3ccc(F)cc3)ncn2)ccc1O[C@H]1CCC[C@H](C(=O)O)C1` [Example 313], the IC50 is 41 nM.
